± gives the uncertainty stated by the source.
Assays:
HCC-1954 [1] = assay: % viability in DMSO, miRNA mimic relative to NTC in DMSO; higher = less cytotoxic; conditions: drug used in drug arm: GDC-0980 2.5 uM; treatment: DMSO
Procedure: (§1)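 26 miRNA mimics were transfected into 8 cancer cell lines in triplicate. 48 h post-transfection, cells were treated 72 h with DMSO or a line-specific drug, then recovered 72 h drug-free. Drugs: COLO-205 AZ628 1 uM, MKN-45 crizotinib 1 uM, NCI-H596 paclitaxel 6 uM, EVSA-T GDC-0980 2.5 uM, M14 AZ628 1 uM, HCC-1954 GDC-0980 2.5 uM, NCI-H441 carboplatin 2.5 uM, SKBr3 lapatinib 1 uM. Surviving cells are expressed as % of NTC-transfected cells in DMSO (the NTC drug arm itself is about 30-50%), mean +- SEM.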

SK-BR-3 [2] = assay: as above; conditions: drug used in drug arm: lapatinib 1 uM; treatment: DMSO
Procedure: as §1

MKN-45 [3] = assay: as above; conditions: drug used in drug arm: crizotinib 1 uM; treatment: DMSO
Procedure: as §1

M14 [4] = assay: as above; conditions: drug used in drug arm: AZ628 1 uM; treatment: DMSO
Procedure: as §1

NCI-H596 [5] = assay: as above; conditions: drug used in drug arm: paclitaxel 6 uM; treatment: DMSO
Procedure: as §1

COLO-205 [6] = assay: as above; conditions: drug used in drug arm: AZ628 1 uM; treatment: DMSO
Procedure: as §1

EVSA-T [7] = assay: as above; conditions: drug used in drug arm: GDC-0980 2.5 uM; treatment: DMSO
Procedure: as §1

NCI-H441 [8] = assay: as above; conditions: drug used in drug arm: carboplatin 2.5 uM; treatment: DMSO
Procedure: as §1

HCC-1954 [9] = assay: % viability under drug (72 h drug + 72 h recovery), miRNA mimic relative to NTC in DMSO; higher = more surviving cells; conditions: drug used in drug arm: GDC-0980 2.5 uM; treatment: drug
Procedure: as §1

SK-BR-3 [10] = assay: as above; conditions: drug used in drug arm: lapatinib 1 uM; treatment: drug
Procedure: as §1

MKN-45 [11] = assay: as above; conditions: drug used in drug arm: crizotinib 1 uM; treatment: drug
Procedure: as §1

M14 [12] = assay: as above; conditions: drug used in drug arm: AZ628 1 uM; treatment: drug
Procedure: as §1

NCI-H596 [13] = assay: as above; conditions: drug used in drug arm: paclitaxel 6 uM; treatment: drug
Procedure: as §1

COLO-205 [14] = assay: as above; conditions: drug used in drug arm: AZ628 1 uM; treatment: drug
Procedure: as §1

EVSA-T [15] = assay: as above; conditions: drug used in drug arm: GDC-0980 2.5 uM; treatment: drug
Procedure: as §1

NCI-H441 [16] = assay: as above; conditions: drug used in drug arm: carboplatin 2.5 uM; treatment: drug
Procedure: as §1

PC9 = assay: cell count fold change with erlotinib, miRNA mimic vs non-targeting control (log2 ratio); higher = more drug-tolerant survivors than NTC; conditions: erlotinib 1 µM; 72 h drug + 72 h drug-free recovery; perturbation: miRNA mimic

Row | Sequence | cell count fold change with erlotinib (PC9) | further results
1 | AAAAGUAAUUGCGGAUUUUGCC | 0.467 | % viability in DMSO (HCC-1954 [1]): 117 ± 9.9%; % viability in DMSO (SK-BR-3 [2]): 73.43 ± 0.24%; % viability in DMSO (MKN-45 [3]): 136 ± 19%; % viability in DMSO (M14 [4]): 119 ± 24%; % viability in DMSO (NCI-H596 [5]): 95.4 ± 3.6%; % viability in DMSO (COLO-205 [6]): 101 ± 4.2%; % viability in DMSO (EVSA-T [7]): 85.7 ± 0.94%; % viability in DMSO (NCI-H441 [8]): 182 ± 14%; % viability under drug (HCC-1954 [9]): 3.99 ± 0.13%; % viability under drug (SK-BR-3 [10]): 45.73 ± 0.37%; % viability under drug (MKN-45 [11]): 4.35 ± 0.71%; % viability under drug (M14 [12]): 18 ± 0.42%; % viability under drug (NCI-H596 [13]): 1.3 ± 0.04%; % viability under drug (COLO-205 [14]): 42.6 ± 1%; % viability under drug (EVSA-T [15]): 0.608 ± 0.1%; % viability under drug (NCI-H441 [16]): 29.7 ± 2.4%
2 | AAAAGUAAUUGUGGUUUUUGCC | 0.561 | % viability in DMSO (HCC-1954 [1]): 110 ± 9.3%; % viability in DMSO (SK-BR-3 [2]): 80.3 ± 4.8%; % viability in DMSO (MKN-45 [3]): 156 ± 2.2%; % viability in DMSO (M14 [4]): 85.4 ± 3.8%; % viability in DMSO (NCI-H596 [5]): 98.8 ± 8.3%; % viability in DMSO (COLO-205 [6]): 95 ± 6.9%; % viability in DMSO (EVSA-T [7]): 71.9 ± 2.7%; % viability in DMSO (NCI-H441 [8]): 106 ± 7.8%; % viability under drug (HCC-1954 [9]): 2.67 ± 0.17%; % viability under drug (SK-BR-3 [10]): 39.2 ± 11%; % viability under drug (MKN-45 [11]): 4.45 ± 0.12%; % viability under drug (M14 [12]): 21.9 ± 1.3%; % viability under drug (NCI-H596 [13]): 0.738 ± 0.0075%; % viability under drug (COLO-205 [14]): 46.4 ± 1.6%; % viability under drug (EVSA-T [15]): 0.3585 ± 0.0025%; % viability under drug (NCI-H441 [16]): 24.2 ± 3.6%
3 | AAAAGUACUUGCGGAUUUUGCU | -3.1 | % viability in DMSO (HCC-1954 [1]): 100 ± 4.8%; % viability in DMSO (SK-BR-3 [2]): 161 ± 7.2%; % viability in DMSO (MKN-45 [3]): 142 ± 17%; % viability in DMSO (M14 [4]): 99.3 ± 19%; % viability in DMSO (NCI-H596 [5]): 89.1 ± 8.1%; % viability in DMSO (COLO-205 [6]): 101 ± 4.5%; % viability in DMSO (EVSA-T [7]): 64.63 ± 0.49%; % viability in DMSO (NCI-H441 [8]): 67.7 ± 7.8%; % viability under drug (HCC-1954 [9]): 4.02 ± 0.49%; % viability under drug (SK-BR-3 [10]): 49.8 ± 2.7%; % viability under drug (MKN-45 [11]): 4.2 ± 0.41%; % viability under drug (M14 [12]): 22.8 ± 0.71%; % viability under drug (NCI-H596 [13]): 2.53 ± 0.066%; % viability under drug (COLO-205 [14]): 49.9 ± 1.1%; % viability under drug (EVSA-T [15]): 1.66 ± 0.013%; % viability under drug (NCI-H441 [16]): 11.3 ± 2.9%
4 | AACGCCAUUAUCACACUAAAUA | 0.733 | % viability in DMSO (HCC-1954 [1]): 81.2 ± 2.9%; % viability in DMSO (SK-BR-3 [2]): 22.3 ± 5.5%; % viability in DMSO (MKN-45 [3]): 27.1 ± 3.8%; % viability in DMSO (M14 [4]): 73.5 ± 3.2%; % viability in DMSO (NCI-H596 [5]): 62.43 ± 0.46%; % viability in DMSO (COLO-205 [6]): 106 ± 2%; % viability in DMSO (EVSA-T [7]): 23.6 ± 3.1%; % viability in DMSO (NCI-H441 [8]): 13.2 ± 1.1%; % viability under drug (HCC-1954 [9]): 2.25 ± 0.44%; % viability under drug (SK-BR-3 [10]): 11.5 ± 1.4%; % viability under drug (MKN-45 [11]): 1.35 ± 0.4%; % viability under drug (M14 [12]): 12.8 ± 0.75%; % viability under drug (NCI-H596 [13]): 0.97 ± 0.026%; % viability under drug (COLO-205 [14]): 43 ± 1.6%; % viability under drug (EVSA-T [15]): 0.459 ± 0.079%; % viability under drug (NCI-H441 [16]): 10.2 ± 2.8%
5 | UAGAUAAAAUAUUGGUACCUG | -1.41 | –
6 | UAGCAGCACAGAAAUAUUGGC | -1.13 | –
7 | UAGCAGCACGUAAAUAUUGGCG | -2.26 | –
8 | UAGCAGCGGGAACAGUUCUGCAG | -3.68 | –
9 | UAGCUUAUCAGACUGAUGUUGA | -2.58 | –
10 | UAGGACACAUGGUCUACUUCU | -1.02 | –
11 | UAGGCAGUGUCAUUAGCUGAUUG | -1.83 | –
12 | UAGGUUAUCCGUGUUGCCUUCG | -2.37 | –
13 | UAGUACCAGUACCUUGUGUUCA | -4.15 | –
14 | UAGUGCAAUAUUGCUUAUAGGGU | -3.19 | –
15 | UAUGGCUUUUUAUUCCUAUGUGA | -1.4 | –
16 | UAUGUGCCUUUGGACUACAUCG | -3.93 | –
17 | UCACAAUGCUGACACUCAAACUGCUGAC | -1.47 | –
18 | UCACUCCUCUCCUCCCGUCUU | -4.11 | –
19 | UCCAGCAUCAGUGAUUUUGUUG | -2.81 | –
20 | UCCCUGUCCUCCAGGAGCUCACG | -1.84 | –
21 | UCCCUGUUCGGGCGCCA | -3.09 | –
22 | UCCUGUACUGAGCUGCCCCGAG | -0.848 | –
23 | UCGAGGAGCUCACAGUCUAGU | -0.737 | –

Row | Sequence | cell count fold change with erlotinib (PC9) | further results
24 | UCGGAUCCGUCUGAGCUUGGCU | 0.402 | –
25 | UCUCUGGGCCUGUGUCUUAGGC | 0.808 | –
26 | UGACAACUAUGGAUGAGCUCU | -1.88 | –
27 | UGAGAACCACGUCUGCUCUGAG | -1.74 | –
28 | UGAGACCUCUGGGUUCUGAGCU | -0.719 | –
29 | UGAGAUGAAGCACUGUAGCUC | -1.52 | –
30 | UGAGCCCCUGUGCCGCCCCCAG | -1.44 | –
31 | UGAGCCCUGUCCUCCCGCAG | -3.68 | –
32 | UGAGCGCCUCGACGACAGAGCCG | -1.23 | –
33 | UGAGGGGCAGAGAGCGAGACUUU | -0.476 | –
34 | UGAGUGCCGGUGCCUGCCCUG | -2.45 | –
35 | UGCCUGUCUACACUUGCUGUGC | -1.78 | –
36 | UGCGGGGCUAGGGCUAACAGCA | 0.647 | –
37 | UGCUUCCUUUCAGAGGGU | -3.13 | –
38 | UGGAAGACUAGUGAUUUUGUUGU | -2.71 | –
39 | UGGAAUGUAAGGAAGUGUGUGG | -0.89 | –
40 | UGGAGAGAAAGGCAGUUCCUGA | -1.98 | –
41 | UGGAGGAGAAGGAAGGUGAUG | 0.943 | –
42 | UGGAUUUCUUUGUGAAUCACCA | -4.07 | –
43 | UGGGCGUAUCUGUAUGCUA | -0.274 | –
44 | UGGGUCUUUGCGGGCGAGAUGA | -0.809 | –
45 | UGGUGCGGAGAGGGCCCACAGUG | -1.34 | –
46 | UGGUUGUAGUCCGUGCGAGAAUA | 1.81 | –

Row | Sequence | cell count fold change with erlotinib (PC9) | further results
47 | UGGUUUACCGUCCCACAUACAU | 0.24 | –
48 | UGUAAACAUCCUACACUCUCAGC | 0.35 | –
49 | UGUAGUGUUUCCUACUUUAUGGA | -4.91 | –
50 | UGUCUUGCAGGCCGUCAUGCA | -4.12 | –
51 | UGUGCGCAGGGAGACCUCUCCC | -1.77 | –
52 | UGUUUUGAUAACAGUAAUGU | -1.27 | –
53 | UUACAGUUGUUCAACCAGUUACU | -2.68 | –
54 | UUAUGGUUUGCCUGGGACUGAG | -0.886 | –
55 | UUCAACGGGUAUUUAUUGAGCA | -3.32 | –
56 | UUCCUAUGCAUAUACUUCUUUG | -1.18 | –
57 | UUCUCAAGGAGGUGUCGUUUAU | -1.83 | –
58 | UUCUCCAAAAGAAAGCACUUUCUG | -1.65 | –
59 | UUCUCGAGGAAAGAAGCACUUUC | -1.6 | –
60 | UUGCAGCUGCCUGGGAGUGACUUC | -2.6 | –
61 | UUGCAUAUGUAGGAUGUCCCAU | -1.06 | –
62 | UUGGGAUCAUUUUGCAUCCAUA | 0.519 | –
63 | UUGUACAUGGUAGGCUUUCAUU | -3.02 | –
64 | UUGUGCUUGAUCUAACCAUGU | -1.88 | –
65 | UUGUGUCAAUAUGCGAUGAUGU | -3.39 | –
66 | UUUCCAUAGGUGAUGAGUCAC | -0.48 | –
67 | UUUGUGACCUGGUCCACUAACC | -2.85 | –
68 | UUUGUUCGUUCGGCUCGCGUGA | -4.05 | –
69 | UUUUGCACCUUUUGGAGUGAA | -3.02 | –
